Results on one compound are retold here after BindingDB's records for doi:10.1021/jm00395a016 (Medical Research Division of American Cyanamid, 1988).

The experiment concerns the target Thromboxane-A synthase (Rattus norvegicus). The experiment in a line: Tested for inhibition of thromboxane Synthetase from spontaneously hypertensive rats.

For `CC(Cn1ccnc1)Cn1c(=O)[nH]c2cc(Cl)ccc2c1=O` (stereo unspecified), the IC50 turned out to be 10 nM. This counts as double-digit nanomolar.
